Values after ≈ are worked out from the molar mass of the structure shown.
Key:
[1] = Giant unilamellar vesicles (GUVs) assay, mammalian mimetic
Method: Giant unilamellar vesicles (GUVs) assay. GUVs were prepared by slightly modifying the electroformation method described previously. 1,2-dioleoyl-sn-glycero-3-phosphocholine (DOPC), 1,2-dioleoyl-sn-glycero-3-phospho-(1′-rac-glycerol) (DOPG), 1-palmitoyl-2-oleoyl-glycero-3-phosphocholine (POPC), cholesterol (ovine wool) and 1,2-dioleoyl-sn-glycero-3-phosphoethanolamine-N-(lissamine rhodamine B sulfonyl) (18:1 Liss Rhod PE) were purchased from Avanti Polar Lipids (Alabaster, Ala., USA). 4 mM lipid mixtures consisting of DOPC/DOPG/18:1 Liss Rhod PE (7:3:0.005) and POPC/cholesterol/18:1 Liss Rhod PE (7:3:0.005) were dissolved in chloroform respectively. Same procedure was used to prepare both kinds of GUVs. Indium tin oxide (ITO)-coated slides (50×75×1.1 mm, Delta Technologies, Loveland, Colo., USA) were coated with […] of the lipid mixture and dried in a vacuum chamber for 2 h to remove chloroform. An electroformation chamber was made by placing a 2 mm thick Teflon spacer between the two lipid-coated ITO slides. […] After adding 1 μl of compound solution to a well (final compound concentration: 1× MIC), the GUVs were observed and imaged with an optical microscope equipped with fluorescence contrast and a digital camera (63x objectives, Axio Observer. A1 & AxioCam MRm, Zeiss, Germany). […]

S. aureus MW2 = assay: Transmission electron microscopy; assay type: cell-based; details: 10× MIC, 2 h
Method: Transmission electron microscopy. S. aureus MW2 was grown to exponential phase (OD600=˜0.4) at 37° C. Bacterial cultures were then treated with 10× MIC of bithionol or 0.1% DMSO (control) at 37° C. for 2 h. 1 mL of the treated bacterial samples were fixed with the same volume of a 2× fixative, a mixture of 5% glutaraldehyde, 2.5% paraformaldehyde and 0.06% picric acid in 0.2 M sodium cacodylate buffer (pH 7.4). Fixed cells were washed in 0.1 M cacodylate buffer and post-fixed with 1% Osmium tetroxide (OsO4)/1.5% Potassium ferrocyanide (KFeCN6) for 1 h. The fixed cells were washed twice in water, once in maleate buffer, and incubated in the maleate buffer containing 1% uranyl acetate for lh. Cells were then washed twice in water and subsequently dehydrated in an alcohol gradient series (10 min each; 50%, 70%, 90%, 2×10 min 100%). The cells were then incubated in propyleneoxide for 1 h, infiltrated overnight in a 1:1 mixture of propyleneoxide and Spurr's low viscosity resin (Electron Microscopy sciences, Hatfield, Pa.) and polymerized at 60° C. for 48 h. Ultrathin sections (about 60 nm) were cut on a Reichert Ultracut-S microtome (Leica Microsystem, Wetzlar, Germany), picked up onto copper grids, and stained with lead citrate. Micrographs of the cells were taken using a JEOL 1200EX transmission electron microscope (Harvard Medical School EM facility).

MRSA MW2 cells = assay: Bacterial membrane permeability assay (SYTOX Green); assay type: cell-based, S. aureus
Method: Bacterial membrane permeability assay. Exponential-phase or stationary-phase S. aureus MW2 cells prepared as described above under Killing kinetics assay and Persister killing assay, respectively, were washed 3 times with the same volume of PBS. The washed cells were adjusted to OD600=0.4 with PBS. SYTOX Green (Molecular Probes, Waltham, Mass., USA) was added to 10 mL of the diluted bacterial suspension to a final concentration of 5 μM and incubated for 30 min at room temperature in the dark. 50 μl of the bacterial/SYTOX Green suspension was mixed with 50 μl of phosphate buffered saline (PBS) containing twice the desired concentrations of compounds in black, clear-bottom, 96-well plates (Corning no. 3904). Fluorescence was measured at room temperature using a spectrophotometer (SpectraMax M2, Molecular Devices) with excitation and emission wavelengths of 485 nm and 525 nm, respectively. All experiments were conducted in biological triplicate.

[2] = test system: MRSA strain MW2 persisters; assay: Deep-seated mouse thigh infection model, bacterial load; assay type: in vivo; details: 30 mg/kg each agent, every 12 h for 3 days from 24 h post-infection
Method: Deep-seated mouse thigh infection model. […] Mice were euthanized at 96 h post-infection. […] Thighs were homogenized in PBS, serially diluted with PBS, and spot-plated on TSA plates.

[3] = test system: MRSA MW2 biofilm persisters; assay: Biofilm persister killing assay; assay type: cell-based, S. aureus
Method: Biofilm persister killing assay. An overnight culture of S. aureus MW2 cells was diluted 1:200 with TSB supplemented with 0.2% glucose and 3% NaCl. A 13 mm diameter Millipore mixed cellulose ester membrane (EMD Millipore GSWP01300) was placed at the bottom of each well of a 12-well assay plate (Falcon 353043). […] was added to each well and statically incubated at 37° C. for 24 h. The membranes were washed 3-times with PBS and transferred to a fresh 12-well plate, 1 mL PBS containing the desired concentration of antibiotics was added to each well, and then the plate was statically incubated at 37° C. for 24 h, The membranes were washed 3 times with PBS, placed in 2-mL microcentrifuge tubes containing 1 mL PBS, and sonicated in an ultrasonic bath (Fisher Scientific FS 30) for 10 min. The sonicated samples were serially diluted, spot-plated on TSA to enumerate the number of live cells. The experiment was conducted in biological triplicate.

MRSA BF2 = assay: MIC assay (micro-dilution); assay type: cell-based, S. aureus; details: Staphylococcus aureus
Method: Minimal inhibitory concentration (MIC) assay. The MICs of antibiotics were determined by the standard micro-dilution method recommended by the Clinical and Laboratory Standards Institute. MIC assays were conducted in biological triplicate.
Antimicrobial activity of each analog was tested against four MRSA strains (MW2, BF1, BF2, and BF3), Pseudomonas aeruginosa (PA14), Klebsiella pneumonia (WGLW2), and Acinetobacter baumannii (ATCC 17978).

For `Oc1c(Cl)cc(Cl)cc1Sc1cc(Cl)cc(Cl)c1O` [bithionol, 6,6′-thio-bis-(2,4-dichlorophenol)], the “effect on 7POPC/3 cholesterol GUVs” value [1] was “did not cause observable effects”, the TEM findings (S. aureus MW2) was “disrupts MRSA membranes” and the “SYTOX Green membrane permeabilization” value (MRSA MW2 cells; MRSA MW2 exponential-phase cells and/or persisters, in words) was “dose-dependent membrane permeability”. For the same molecule, the “concentration at which SYTOX Green fluorescence intensity was maximized” value (MRSA MW2 cells; decreased above 8 μg/mL) was 4 µg/mL, the “effect on MRSA CFUs in the mouse thigh” value [2] was “no effect” and the “time to complete eradication of biofilm persisters” value ([3]; 32 μg/mL (32× MIC)) was ≤ 24 h. The “concentration completely eradicating biofilm persisters” value ([3]; 24 h treatment) was 32 µg/mL and the MIC (MRSA BF2) was 0.5 µg/mL (≈ 1.4 µM).

— patent publication US20220324796A1, “ANTIBIOTIC COMPOUNDS” (The General Hospital Corporation, priority 2019, published 2022)
